From US9290473B2, “Inhibitors of phosphatidylinositol-3-kinase (PI3) and inducers of nitric oxide (NO)” (COUCIL OF SCIENTIFIC & INDUSTRIAL RESEARCH, priority 2009, dated 2016)
Where two headings read alike, the source gives them in different places.

Experiments:
[1] = tested on: T-lymphoblastic leukemia cell line Molt-4; assay: Cell viability, trypan blue exclusion, Molt-4; format: cell-based, human
Description: (§1) Following cancer cell lines were used: chronic myeloid leukemia cell lines K562, KU812; acute myeloid leukemia cell lines HL60, U937; T-lymphoblastic leukemia cell line Molt-4; prostate cancer cell line PC-3; breast cancer cell line MCF-7; pancreatic cancer cell line MIA PaCa-2. These cancer cell lines were maintained in tissue culture in standard growth medium containing 10% heat-inactivated fetal bovine serum (FBS). Normal human peripheral blood mononuclear cells (PBMC) were separated from whole blood by Ficoll/Hypaque density gradient centrifugation. Peripheral blood samples were collected from normal donors with due approval from the Human Ethics Committee of Indian Institute of Chemical Biology, Kolkata, India, and all experiments with human blood were conducted under an approved institutional Human Ethics committee protocol. Informed consent was provided according to the Declaration of Helsinki. Cancer cell lines and PBMC (5×10^3) in triplicate were incubated in 0.2 mL of standard growth medium containing 10% FBS with varying concentrations of test compounds of the present invention. After 72 hours of incubation, cells were collected by centrifugation (at 1000 g for 5 minutes) and cell-viability was determined by the trypan blue exclusion assay. At least 200 cells were examined in each sample. Because of monolayer culture, treated and untreated PC-3, MCF-7 and MIA PaCa-2 cells were detached from the wells by treatment with Cell Dissociation Solution (Sigma Chemical, St. Louis, Mo.) before counting. Data are represented as IC50 (minimum concentration required to inhibit the viability by 50%) in Table 5.

[2] = tested on: Normal human peripheral blood mononuclear cells (PBMC); assay: Cell viability, trypan blue exclusion, normal PBMC; format: cell-based; settings: 72 hours incubation
Description: as §1

[3] = tested on: acute myeloid leukemia cell line HL60; assay: Cell viability, trypan blue exclusion, HL-60; format: cell-based; settings: Homo sapiens
Description: as §1

[4] = tested on: chronic myeloid leukemia cell line KU812; assay: Cell viability, trypan blue exclusion, KU812; format: cell-based; settings: Homo sapiens, 72 hours incubation
Description: as §1

[5] = tested on: chronic myeloid leukemia cell line K562; assay: Cell viability, trypan blue exclusion, K562; format: cell-based; settings: Homo sapiens
Description: as §1

[6] = tested on: pancreatic cancer cell line MIA PaCa-2; assay: Cell viability, trypan blue exclusion, MIA PaCa-2; format: cell-based, human; settings: Homo sapiens, read-out: Activity (IC50) MIAPaCa-2
Description: as §1

[7] = tested on: prostate cancer cell line PC-3; assay: Cell viability, trypan blue exclusion, PC-3; format: cell-based, human; settings: 72 hours incubation
Description: as §1

[8] = tested on: breast cancer cell line MCF-7; assay: Cell viability, trypan blue exclusion, MCF-7; format: cell-based, human
Description: as §1

[9] = tested on: acute myeloid leukemia cell line U937; assay: Cell viability, trypan blue exclusion, U937; format: cell-based; settings: Homo sapiens, U-937, 72 hours incubation
Description: as §1

[10] = Homo sapiens, MOLT-4, 72 h, 72 hours incubation
[11] = 72 hours incubation, trypan blue exclusion, read-out: Activity (IC50) HL-60
[12] = K562, 72 hours incubation, trypan blue exclusion, read-out: Activity (IC50) K562
[13] = MIA PaCa-2, 72 h, 72 hours incubation
[14] = Homo sapiens, MCF7, 72 h, 72 hours incubation
[15] = range over both cell lines HL60 and U937 and over the listed compounds, read-out: IC50 against acute myeloid leukemia cancer cell line (HL60, U937)
[16] = read-out: IC50 against chronic myeloid leukemia cancer cell lines (K562), range over both cell lines K562, KU812 and KU812 and over the listed compounds, read-out: IC50 against chronic myeloid leukemia cancer cell lines (K562, KU812)

SMILES | IC50 [1, 10] [µM] | IC50 [2] [µM] | IC50 [3, 11] [µM] | IC50 [4] [µM] | IC50 [5, 12] [µM] | IC50 [6, 13] [µM] | IC50 ([7]; Homo sapiens, 72 h) [µM] | IC50 [8, 14] [µM] | IC50 ([1]; 72 hours incubation) [µM] | IC50 [3, 15] [µM] | IC50 [5, 16] [µM] | IC50 ([8]; 72 hours incubation) [µM] | IC50 [7] [µM] | IC50 [9] [µM] | IC50 ([1]; Homo sapiens, MOLT-4, 72 hours incubation) [µM] | IC50 ([6]; MIA PaCa-2, 72 hours incubation) [µM] | IC50 ([7]; Homo sapiens) [µM] | IC50 ([8]; Homo sapiens, MCF7, 72 hours incubation) [µM]
CC(C)(C=NO)c1ccc(O)c(O)c1 [Compound 9, 2-(3,4-dihydroxyphenyl)-2-methylpropanal oxime] | 70 | 100 | 64 | 70 | 64 | 85 | 80 | 85 |  |  |  |  |  |  |  |  |  | 
C=CCc1cc(O)c(O)cc1CC=C [Compound 2, 4,5-diallylbenzene-1,2-diol] | 15 to 50 |  | 25 | 25 | 13 | 30 to 70 | 25 to 70 | 25 to 70 | 30 | 13 to 60 | 13 to 52 | 40 |  |  |  |  |  | 
C=CCc1cccc(O)c1O [Compound 16, 3-allyl-benzene-1,2-diol] | 15 to 50 | 30 | 20 | 25 | 20 | 30 to 70 | 25 to 70 | 25 to 70 | 20 | 13 to 60 | 13 to 52 |  | 30 | 25 |  |  |  | 
C=CC(C)(C)c1ccc2c(c1)OCO2 [Compound 14, 5-(2-methylbut-3-en-2-yl)benzo[d][1,3]dioxole] |  | 800 | 670 | 650 | 657 |  |  |  |  |  |  |  |  | 670 | 650 | 680 | 670 | 680
CC(=O)ON=CC(C)(C)c1ccc(OC(C)=O)c(OC(C)=O)c1 [Compound 12, 4-(1-(acetoxyimino)-2-methylpropan-2-yl)-1,2-phenylene diacetate] | 190 | 250 | 190 | 190 | 194 |  | 200 | 200 |  |  |  |  |  | 190 |  |  |  | 
